Reference: the supplement of paper PMC10307832

Assays:
Experiment in all cases: relative viability (nuclei count vs DMSO), 5 days (fraction); higher = more cells survive
[1] = compound: COC1=CC=C(C=C1)COC2=C(C=C(C=C2)CC3=CN=C(N=C3N)N)OC [GW-2580] + CC(=O)c1c(C)c2cnc(Nc3ccc(N4CCNCC4)cn3)nc2n(C2CCCC2)c1=O [Palbociclib] (partner 0.5 µM)
Method in brief: (§1)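 Lung cancer cell lines in 1536-well plates were dosed by pin tool the day after seeding, either with one drug alone or with a fixed anchor-drug dose plus five library-drug doses (not always all listed) in √10 steps. After 5 days, cells were fixed and their nuclei stained in one step (final 0.05% Triton X-100, 1% formaldehyde, 1 ug/ml Hoechst), then counted on 4× images. Relative viability is the nuclei count in treated wells divided by that in vehicle wells. Values are medians of duplicate plates.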

[2] = compound: Cc1cnc(Nc2ccc(OCCN3CCCC3)cc2)nc1Nc1cccc(S(=O)(=O)NC(C)(C)C)c1 [Fedratinib] + C[C@]1(O)C[C@@H](c2nc(-c3ccc4ccc(-c5ccccc5)nc4c3)c3c(N)nccn32)C1 [Linsitinib] (partner 1 µM)
Method in brief: as §1

[3] = compound: Cc1cnc(Nc2ccc(OCCN3CCCC3)cc2)nc1Nc1cccc(S(=O)(=O)NC(C)(C)C)c1 [Fedratinib] + C[C@@H](Oc1cc(-c2cnn(C3CCNCC3)c2)cnc1N)c1c(Cl)ccc(F)c1Cl [Crizotinib] (partner 1 µM)
Method in brief: as §1

[4] = compound: Cc1cnc(Nc2ccc(OCCN3CCCC3)cc2)nc1Nc1cccc(S(=O)(=O)NC(C)(C)C)c1 [Fedratinib] + CCNC(=O)c1noc(-c2cc(C(C)C)c(O)cc2O)c1-c1ccc(CN2CCOCC2)cc1 [Luminespib] (partner 0.01 µM)
Method in brief: as §1

[5] = compound: COC1=CC=C(C=C1)COC2=C(C=C(C=C2)CC3=CN=C(N=C3N)N)OC [GW-2580] + CC1(C)CCC(c2ccc(Cl)cc2)=C(CN2CCN(c3ccc(C(=O)NS(=O)(=O)c4ccc(N[C@H](CCN5CCOCC5)CSc5ccccc5)c(S(=O)(=O)C(F)(F)F)c4)cc3)CC2)C1 [Navitoclax] (partner 0.5 µM)
Method in brief: as §1

Row | Cell Line | relative viability ([1]; first compound 0.08 µM) | relative viability ([1]; first compound 0.8 µM) | relative viability ([1]; first compound 2.53 µM) | relative viability ([1]; first compound 8 µM) | relative viability ([2]; first compound 0.1 µM) | relative viability ([2]; first compound 0.3162 µM) | relative viability ([2]; first compound 1 µM) | relative viability ([3]; first compound 0.1 µM) | relative viability ([3]; first compound 0.3162 µM) | relative viability ([3]; first compound 1 µM) | relative viability ([4]; first compound 0.1 µM) | relative viability ([4]; first compound 0.3162 µM) | relative viability ([4]; first compound 1 µM) | relative viability ([5]; first compound 0.08 µM) | relative viability ([5]; first compound 0.8 µM) | relative viability ([5]; first compound 2.53 µM) | relative viability ([5]; first compound 8 µM)
1 | NCI-H1944 | 0.33 | 0.387 | 0.29 | 0.255 | 1.28 | 1.12 | 1.1 | 1.12 | 1.09 | 1.04 | 0.741 | 0.801 | 0.763 | 1.09 | 1.1 | 1.03 | 0.988
2 | NCI-H1975 | 0.738 | 0.944 | 0.524 | 0.586 | 0.897 | 0.929 | 0.872 | 0.802 | 0.928 | 0.663 | 0.235 | 0.266 | 0.178 | 1.2 | 1.3 | 1.21 | 0.98
3 | NCI-H1993 | 0.744 | 0.748 | 0.563 | 0.647 | 0.706 | 0.718 | 0.682 | 0.747 | 0.773 | 0.848 | 0.679 | 0.85 | 1.1 | 0.932 | 1.14 |  | 0.948
4 | NCI-H2009 | 0.193 | 0.179 | 0.212 | 0.248 | 1.18 | 1.18 | 1.17 | 1.04 | 0.977 | 0.884 | 1.04 | 1.09 | 0.943 | 1.25 | 1.22 | 1.15 | 1.02
5 | NCI-H2023 | 0.398 | 0.477 | 0.368 | 0.31 | 0.603 | 0.673 | 0.601 | 0.585 | 0.715 | 0.58 | 0.578 | 0.581 | 0.632 | 0.914 | 1.06 | 0.973 | 1.01
6 | NCI-H2085 | 0.507 | 0.467 | 0.462 | 0.438 | 0.845 | 0.872 | 0.858 | 0.769 | 0.953 | 0.812 | 0.415 | 0.463 | 0.408 | 1.09 | 1.11 | 1.03 | 1.07
7 | NCI-H2087 | 0.196 | 0.274 | 0.216 | 0.252 | 1.02 | 0.923 | 0.859 | 0.735 | 0.879 | 0.831 | 0.17 | 0.18 | 0.14 | 0.956 | 1.16 | 0.886 | 0.88
8 | NCI-H2126 | 0.352 | 0.365 | 0.335 | 0.356 | 0.689 | 0.732 | 0.682 | 1.01 | 0.989 | 0.996 | 0.929 | 0.962 | 0.834 | 0.915 | 0.875 | 0.808 | 0.921
9 | NCI-H2228 | 0.793 | 1.03 | 0.822 | 0.843 | 0.609 | 0.837 | 0.543 | 0.528 | 0.46 | 0.392 | 0.112 | 0.12 | 0.119 | 1.01 | 0.84 | 0.869 | 0.723
10 | NCI-H2347 | 0.382 | 0.453 | 0.451 | 0.426 | 0.871 | 0.922 | 0.878 | 0.721 | 0.667 | 0.679 | 0.33 | 0.401 | 0.59 | 0.899 | 0.777 | 0.708 | 0.804
11 | NCI-H2405 | 0.512 | 0.546 | 0.463 | 0.49 | 0.704 | 0.962 | 0.702 | 0.796 | 0.849 | 0.818 | 0.57 | 0.701 | 0.562 | 0.888 | 0.742 | 0.928 | 0.66
12 | NCI-H3122 | 0.207 | 0.199 | 0.189 | 0.195 | 1.02 | 1.01 | 0.948 | 0.317 | 0.235 | 0.265 | 0.0769 | 0.0986 | 0.088 | 1.04 | 1.06 | 1.13 | 0.892
13 | PC-3 [JPC-3] | 0.546 | 0.567 | 0.515 | 0.516 | 0.924 | 0.932 | 0.951 | 0.998 | 0.944 | 0.985 | 0.716 | 0.793 | 0.642 | 0.807 | 0.854 | 0.72 | 0.779
14 | PC-14 | 0.653 | 0.614 | 0.607 | 0.473 | 0.927 | 1.03 | 0.92 | 0.926 | 0.874 | 0.92 |  | 0.172 | 0.14 | 1.07 | 1.05 | 0.905 | 1.05
15 | RERF-LC-KJ | 1.13 | 1.24 | 0.988 | 1.07 | 0.805 | 0.906 | 0.855 | 0.834 | 0.883 | 0.786 | 1.13 | 1.24 | 1.17 | 0.871 | 1.04 | 1.13 | 0.995
16 | SK-LU-1 | 0.414 | 0.459 | 0.29 | 0.373 |  | 0.999 | 1.01 |  | 0.836 | 0.584 | 0.181 | 0.19 | 0.16 | 0.869 | 0.85 | 1.06 | 1.05
17 | SK-MES-1 | 0.36 | 0.322 | 0.281 | 0.318 | 1.08 | 1.11 | 1 | 1.04 | 0.992 | 0.923 | 0.741 | 0.773 | 0.609 | 1.4 | 1.18 | 1.1 | 1.33
18 | SW 1573 | 0.439 | 0.38 | 0.397 | 0.408 | 0.683 | 0.768 | 0.802 | 0.747 | 0.733 | 0.709 | 0.548 | 0.26 | 0.145 | 1 | 1.04 | 0.869 | 0.929
